Reference: PMC11042242, “1,5-Disubstituted tetrazoles as PD-1/PD-L1 antagonists” (RSC Medicinal Chemistry, 2024)

Assays:
human PD-L1 (hPD-L1) = target: T1, human PD-L1 (hPD-L1) (Homo sapiens, UniProt Q9NZQ7); experiment: 1H NMR titration experiment with hPD-L1; format: binding; settings: molar ratio of protein to inhibitor 1 : 1; PBS pH 7.4, 0.2 mM PD-L1
T1 construct: PD-L1 gene (amino acids 18-134); made in house
Description: The corresponding behaviour is characteristic of hPD-L1 oligomerization, previously observed by our group with BMS reference compounds.[20]
Fig. 2 Aliphatic part of the ^1H NMR spectra of PD-L1 with tetrazole-based inhibitors. ^1H NMR spectra of hPD-L1 protein (blue), PD-L1 and compounds: (A) 10f, (B) 10p, and (C) 10l in protein to inhibitor molar ratios of 1 : 1 (red) and 1 : 10 (green), respectively.
NMR spectra were recorded in PBS pH 7.4 containing 10% (v/v) of D2O added to the samples to provide the lock signal. Water suppression was carried out using the WATERGATE pulse sequence. All the spectra were recorded at 300 K using a Bruker Avance III 600 MHz spectrometer. The spectra were recorded at the protein/ligand at the molar ratio 1:1 and 1:10. The sample were prepared by adding the appropriate amounts of inhibitor, from 50 mM ligand stock solution in DMSO-d6, to the protein solution of PD-L1 at a concentration of 0.2 mM. Spectra were visualized using TopSpin 3.2
Protein expression and purification
E. coli strain BL21 was transformed with pET-21b plasmid carrying PD-L1 gene (amino acids 18-134). The bacteria were cultured in LB at 37°C until OD600nm of 0.6 when the recombinant protein production was induced with 1 mM IPTG. The protein production was continued overnight. Inclusion bodies were collected by centrifugation, washed twice with 50 mM Tris-HCl pH 8.0 containing 200 mM NaCl, 10 mM EDTA, 10 mM 2-mercaptoethanol and 0.5% Triton X-100, followed by a single wash with the same buffer but with no Triton X-100. The washed inclusion bodies were resuspended overnight in 50 mM Tris-HCl pH 8.0, 6 M GuHCl, 200 mM NaCl and 10 mM 2-mercaptoethanol and clarified with centrifugation. Refolding of PD-L1 was performed by drop-wise dilution into 0.1 M Tris-HCl pH 8.0 containing 1 M L-arginine hydrochloride, 0.25 mM oxidized glutathione and 0.25 mM reduced glutathione. […]
7.4. The quality of the refolded protein was evaluated by SDS-PAGE and NMR. […]

PD-1/PD-L1 complex = PD-1/PD-L1 complex (Homo sapiens, UniProt Q9NZQ7); settings: for activity towards dissociating the PD-1/PD-L1 complex: one-point experiment at 50 and 5 nM concentrations of each inhibitor; for IC50: read-out: IC50 (nM), SAR toward PD-L1 based on the HTRF methodology; for IC50 / IC50 (nM), SAR toward PD-L1 based on the HTRF methodology: 5 nM hPD-L1, 50 nM hPD-1, 10f, 10l, 10p IC50 measured with 6 concentrations, remaining compounds estimated from scouting mode (50 and 5 nM) by translation of average Hill's fits
Description: Homogenous Time Resolved Fluorescence
HTRF was performer using the certified Cis-Bio assay according to the manufacturer’s guidelines.
experiments were performed at 5 nM of hPD-L1 and 50 nM of hPD-1 in the final formulation at 20 µL final
After mixing all components according to Cis-Bio protocol, the plate was left for 1h incubation
at room temperature followed by TR-FRET measurement on Tecan Spark 20M. To determine the activity of tested
compounds data was collected for 2 different concentrations of the ligand: 50 nM and 5 nM in the final volume.
All measurements were performed on two individual
dilution series, unless states otherwise. Collected data was background subtracted on the negative control,
normalized on the positive control, averaged and for IC50 determination fitted with normalized Hill’s equation to
determine the IC50 value using Mathematica 12. For remaining compounds, which were measured in scouting
mode, the inhibitory constants were approximated by translation of the average Hill’s fits of fully described
compounds to match the experimental datapoints. Since all compounds reported here are closely related, the slope
of Hill’s fit that determines the shape of the curve is therefore similar across them.

PD-L1 = tested on: PD-L1; parameters: method as in PMID 35585982; settings: printed in Fig. 1B, patented PD-L1 dimerizers by Maxinovel Pharma; cited from earlier work

Sequence of PD-1/PD-L1 complex (Q9NZQ7 19-238 limits assumed, one chain of several): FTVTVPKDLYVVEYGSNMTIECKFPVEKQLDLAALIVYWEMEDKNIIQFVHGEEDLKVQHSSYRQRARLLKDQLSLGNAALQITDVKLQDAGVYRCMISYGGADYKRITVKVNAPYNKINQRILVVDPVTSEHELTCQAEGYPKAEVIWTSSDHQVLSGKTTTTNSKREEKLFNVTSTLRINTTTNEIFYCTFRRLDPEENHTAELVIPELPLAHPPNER
T1 sequence (Q9NZQ7 18-134): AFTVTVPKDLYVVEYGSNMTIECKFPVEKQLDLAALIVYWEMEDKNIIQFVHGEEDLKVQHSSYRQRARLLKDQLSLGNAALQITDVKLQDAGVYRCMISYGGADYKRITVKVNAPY

IC50 (PD-1/PD-L1 complex) [nM]	IC50 (nM), SAR toward PD-L1 based on the HTRF methodology (PD-1/PD-L1 complex)	Structure (SMILES)	further results
254		Cc1c(/C=C/n2nnnc2C(C)NCCCO)cccc1-c1ccc2c(c1)OCCO2 (centres unmarked) [10p]	hPD-L1 oligomerization upon addition of the ligand (broadening of hPD-L1 proton signals) (human PD-L1 (hPD-L1)): protein oligomerization; activity towards dissociating the PD-1/PD-L1 complex (PD-1/PD-L1 complex): better activity
	Inactive	Cc1c(/C=C/n2nnnc2CN[C@]23CC4CC(C[C@@](O)(C4)C2)C3)cccc1-c1ccc2c(c1)OCCO2 [10m]	
	Inactive	Cc1c(/C=C/n2nnnc2C(CC(C)C)NCCN2CCOCC2)cccc1-c1ccccc1 (centres unmarked) [10a]	
	Inactive	Cc1c(/C=C/n2nnnc2CNCC(C)(C)C)cccc1-c1ccccc1 [10e]	
	Inactive	Cc1c(/C=C/n2nnnc2CN[C@]23CC4CC(C[C@@](O)(C4)C2)C3)cccc1-c1ccccc1 [10h]	
944		Cc1c(/C=C/n2nnnc2CN2CCCOC2)cccc1-c1ccccc1 [10l]	hPD-L1 oligomerization upon addition of the ligand (broadening of hPD-L1 proton signals) (human PD-L1 (hPD-L1)): protein oligomerization; activity towards dissociating the PD-1/PD-L1 complex (PD-1/PD-L1 complex): better activity
	Inactive	COc1cccc(CNC(c2nnnn2/C=C/c2cccc(-c3ccccc3)c2C)C(C)C)c1OC (centres unmarked) [10b]	
1000		Cc1c(/C=C/n2nnnc2CN2CCOC2)cccc1-c1ccccc1 [10k]	
460		Cc1c(/C=C/n2nnnc2CN2CCCCOC2)cccc1-c1ccccc1 [10i]	
1770		Cc1c(/C=C/n2nnnc2C(NCc2ccncc2)C2CC2)cccc1-c1ccccc1 (centres unmarked) [10d]	

More lines, now with the values behind:

Structure (SMILES)	IC50 (PD-1/PD-L1 complex) [nM]	IC50 (nM), SAR toward PD-L1 based on the HTRF methodology (PD-1/PD-L1 complex)	further results
Cc1c(/C=C/n2nnnc2CN2CCCOC2)cccc1-c1ccc2c(c1)OCCO2 [10r]	1130		
Cc1c(/C=C/c2cc(CNC(C)(CO)C(=O)O)ccc2C(F)(F)F)cccc1-c1ccc2c(c1)OCCO2 (centres unmarked) [MAX-10181]			IC50 (PD-L1): 18 nM
Cc1c(/C=C/n2nnnc2C(CCl)NCc2ccco2)cccc1-c1ccccc1 (centres unmarked) [10c]		Inactive	
Cc1c(/C=C/n2nnnc2CNCCO)cccc1-c1ccc2c(c1)OCCO2 [10q]		Inactive	
Cc1c(/C=C/n2nnnc2CNCCCCCO)cccc1-c1ccc2c(c1)OCCO2 [10n]	2850		
CCNCc1nnnn1/C=C/c1cccc(-c2ccccc2)c1C [10f]	408		hPD-L1 oligomerization upon addition of the ligand (broadening of hPD-L1 proton signals) (human PD-L1 (hPD-L1)): protein oligomerization; activity towards dissociating the PD-1/PD-L1 complex (PD-1/PD-L1 complex): better activity
Cc1c(/C=C/n2nnnc2CNCCCCCO)cccc1-c1ccccc1 [10j]	1840		
Cc1c(/C=C/n2nnnc2C(C)NCCCO)cccc1-c1ccccc1 (centres unmarked) [10g]	1800		
Cc1c(/C=C/n2nnnc2CNCCCCO)cccc1-c1ccc2c(c1)OCCO2 [10o]	1130		
Cc1c(COc2cc(OCc3cccc(C#N)c3)c(CN3C[C@H](O)C[C@@H]3C(=O)O)cc2Cl)cccc1-c1ccc2c(c1)OCCO2 [BMS-1166, reference compound]			undissociated PD-1/PD-L1 complex (PD-1/PD-L1 complex; one-point experiment, 50 and 5 nM concentrations of inhibitor): 42.1 ± 6.4%
